In patent US9278925B2, “Substituted 3-(biphenyl-3-yl)-4-hydroxy-8-methoxy-1-azaspiro[4.5]dec-3-en-2-one” (BAYER INTELLECTUAL PROPERTY GMBH, priority 2011, dated 2016):

Key:
[1] = biological target: human serum albumin (HSA) (Homo sapiens (Human), UniProt P02768); experiment: Protein binding to human serum albumin (HSA-Transil); conditions: buffer pH 7.4
Experimental: Assays for Determining Membrane Affinity logMA and Protein Binding to Human Serum Albumin (HSA): Determination of membrane affinity and protein binding to human serum albumin (HSA) was carried out via Transil technology (literature: A. Loidl-Stahlhofen, A. Eckert, T. Hartmann, M. […] Pharm Sci 90, 599-606 (2001)). Transil® (commercially available from Sovicell in Leipzig, Germany) are glass beads (diameter 10-12 μm) coated with a double-layer membrane of phosphatidylcholine (MA-Transil) or covalently attached human serum albumin (HSA-Transil). To determine the logMA and the protein binding constant to HSA, the commercially available TRANSIL Intestinal Absorption & HSA Binding Combined Assay Kit was used. This is a 96-well microtitre plate (96 well-MTP) which is filled with Transil and can be used to determine MA-Transil and HSA-Transil binding of in each case eight active compounds. […] Two wells serve as reference and are only filled with buffer pH 7.4. Five further wells contain MA-Transil in various increasing concentrations, the five remaining wells contain HSA-Transil in various increasing concentrations. To determine binding of an active compound to Transil, the supernatant of the wells with Transil was quantified against the reference solution without Transil via HPLC-MS coupling (HPLC-MS=high performance liquid chromatography/mass spectrometry). This is how the individual steps of the assay were carried out: From the internal substance store, the active compounds were delivered in a 96-well MTP. This plate is referred to as mother plate. […] Warfarin, whose membrane affinity and binding to HSA is known, serves to check whether the measurement is correct. […] Using a Hamilton pipetting robot Microlab STAR, the 96 active compounds from the daughter plate were divided onto 12 Transil plates in total. From each well of the daughter plate, 12 times 20 μl were removed. The concentration of each well of the Transil plate was 0.25 μmol/liter, which corresponds to a dilution of 1 to 10. […] The filled Transil plates were each resuspended for two minutes, then allowed to stand at room temperature for at least two minutes and then centrifuged at 600 rotations per minute for five minutes. The pipetting robot was then used to remove 20 μl of supernatant from each well of the Transil plate and to transfer these to a separate microtitre plate. […] Prior to quantification of the active compounds by HPLC-MS, an optimization has to be carried out for each active compound where by way of a single injection daughter ion and optimum electrical voltages are determined. […] This microtitre plate was measured by HPLC-MS using the software Discovery Quant Optimize from AB Sciex. The three pooled microtitre plates were measured by HPLC-MS using the software Discovery Quant Analyze from AB Sciex. • Sciex Triple Quad 5500 mass spectrometer (from AB Sciex) • PAL Autosampler DLW Option Software: Analyst 1.4 (from AB Sciex) • Discovery Quant Optimize (from AB Sciex) • Discovery Quant Analyze (from AB Sciex) Optimization: […] Column: Poroshell 120 SB-C18 2.7 μm 3×30 mm Injection volume: 2 μl Flow rate: 1 ml/min: […] Evaluation of the HPLC peaks was carried out using Discovery Quant Analyze. The results (logMA and binding constant to HSA Kd) were calculated using an Excel workbook provided by Sovicell.

[2] = test system: H460; experiment: Tumour cell proliferation, CellTiter-Glo, 96 h; type: cell-based; conditions: 96-hour incubation
Experimental: (§1) In accordance with the invention, the substances were tested in cell-based assays for the ability of the substances of inhibiting tumour cell proliferation after a 96-hour incubation with the substance. Cell viability was tested using the CellTiter-Glo® luminescent cell viability assay (Promega). The cells were sown at a density of 2000-5000 cells/well (depending on the cell line) in 100 μl growth medium on 96-well microtitre plates. For each cell line examined, cells were sown on a separate plate to determine the luminescence at t=0 hours and t=96 hours. After overnight incubation at 37° C., the luminescence values for the t=0 samples were determined. The dose plates for the t=96 hours points in time were treated with substances diluted with growth medium. The cells were then incubated at 37° C. for 96 hours, and the luminescence values for the t=96 hours samples were then determined. For data analysis, the t=0 values were subtracted from the t=96 hours values for treated and untreated samples. The differences in luminescence in percent between substance-treated samples and control values were used to determine the growth inhibition in percent.
(§2) The substances were tested in the following cell lines which represent the stated indications in an exemplary manner: […]

[3] = test system: PC3; experiment: Tumour cell proliferation, CellTiter-Glo, 96 h; type: cell-based; conditions: 96-hour incubation
Experimental: as §1, §2

[4] = test system: KM12; experiment: Tumour cell proliferation, CellTiter-Glo, 96 h; type: cell-based; conditions: 96-hour incubation
Experimental: as §1, §2

[5] = test system: MCF7; experiment: Tumour cell proliferation, CellTiter-Glo, 96 h; type: cell-based; conditions: 96-hour incubation
Experimental: as §1, §2

Chain of human serum albumin (HSA) (P02768 25-609): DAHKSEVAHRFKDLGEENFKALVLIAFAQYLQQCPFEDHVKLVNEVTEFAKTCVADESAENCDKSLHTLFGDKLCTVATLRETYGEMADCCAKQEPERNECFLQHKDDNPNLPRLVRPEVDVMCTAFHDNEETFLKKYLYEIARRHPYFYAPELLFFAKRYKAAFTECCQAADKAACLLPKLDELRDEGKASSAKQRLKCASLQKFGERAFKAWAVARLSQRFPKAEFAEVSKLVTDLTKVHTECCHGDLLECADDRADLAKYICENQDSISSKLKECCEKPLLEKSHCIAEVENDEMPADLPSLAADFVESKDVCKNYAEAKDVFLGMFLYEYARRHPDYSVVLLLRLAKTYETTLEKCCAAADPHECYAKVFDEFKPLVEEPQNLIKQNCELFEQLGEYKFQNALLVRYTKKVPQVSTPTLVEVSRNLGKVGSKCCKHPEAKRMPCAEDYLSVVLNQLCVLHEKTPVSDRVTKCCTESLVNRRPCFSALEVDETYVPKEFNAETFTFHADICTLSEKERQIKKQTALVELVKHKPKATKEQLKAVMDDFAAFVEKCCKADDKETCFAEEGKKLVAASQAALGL

Structure (SMILES) | Kd [1] | IC50 ([2]; Homo sapiens, NCI-H460) | IC50 ([3]; Homo sapiens, PC-3) | IC50 ([4]; Homo sapiens, KM12) | IC50 ([5]; Homo sapiens, MCF7) | IC50 [2] | IC50 [3] | IC50 [4] | IC50 [5]
COC[C@]1(OC)CC[C@@]2(CC1)NC(=O)C(c1cc(-c3ccc(Cl)cc3)ccc1C)=C2O [Example 1-3, (5r,8r)-3-(4′-Chloro-4-methylbiphenyl-3-yl)-4-hydroxy-8-methoxy-8-(methoxymethyl)-1-azaspiro[4.5]dec-3-en-2-one] | 4800 nM | 365 nM | 194 nM | 222 nM | 45 nM | – | – | – | –
CO[C@]1(C)CC[C@]2(CC1)NC(=O)C(c1cc(-c3ccc(Cl)cc3)ccc1C)=C2O [Example V.1-a, (5r,8r)-3-(4′-Chloro-4-methylbiphenyl-3-yl)-4-hydroxy-8-methoxy-8-methyl-1-azaspiro[4.5]dec-3-en-2-one] | 4840 nM | – | – | – | – | 79 nM | 35 nM | 38 nM | 23 nM
Cc1ccc(-c2ccc(Cl)c(F)c2)cc1C1=C(O)[C@]2(CC[C@](O)(C(F)(F)F)CC2)NC1=O [V.2-c, (5r,8r)-3-(4′-Chloro-3′-fluoro-4-methylbiphenyl-3-yl)-4,8-dihydroxy-8-(trifluoromethyl)-1-azaspiro[4.5]dec-3-en-2-one] | 1380 nM | 2120 nM | 767 nM | 2370 nM | – | – | – | – | –
COC[C@H]1CC[C@]2(CC1)NC(=O)C(c1cc(-c3ccc(Cl)cc3)ccc1C)=C2O [V.3-b, (5s,8s)-3-(4′-Chloro-4-methylbiphenyl-3-yl)-4-hydroxy-8-(methoxymethyl)-1-azaspiro[4.5]dec-3-en-2-one] | 4200 nM | 67 nM | 36 nM | 31 nM | 23 nM | – | – | – | –
CO[C@]1(C)CC[C@]2(CC1)NC(=O)C(c1cc(-c3ccc(Cl)c(F)c3)ccc1C)=C2O [Example V.2-a, (5r,8r)-3-(4′-Chloro-3′-fluoro-4-methylbiphenyl-3-yl)-4-hydroxy-8-methoxy-8-methyl-1-azaspiro[4.5]dec-3-en-2-one] | 2800 nM | – | – | – | – | 82 nM | 46 nM | 73 nM | 32 nM
Cc1ccc(-c2ccc(Cl)cc2)cc1C1=C(O)[C@]2(CC[C@](O)(C(F)(F)F)CC2)NC1=O [V.1-c, (5r,8r)-3-(4′-Chloro-4-methylbiphenyl-3-yl)-4,8-dihydroxy-8-(trifluoromethyl)-1-azaspiro[4.5]dec-3-en-2-one] | 6900 nM | 1870 nM | 275 nM | 827 nM | – | – | – | – | –
CO[C@]1(C(F)(F)F)CC[C@]2(CC1)NC(=O)C(c1cc(-c3ccc(Cl)cc3)ccc1C)=C2O [Example 1-1, (5r,8r)-3-(4′-Chloro-4-methylbiphenyl-3-yl)-4-hydroxy-8-methoxy-8-(trifluoromethyl)-1-azaspiro[4.5]dec-3-en-2-one] | 1730 nM | 88 nM | 29 nM | 21 nM | 26 nM | – | – | – | –
COC[C@H]1CC[C@]2(CC1)NC(=O)C(c1cc(-c3ccc(Cl)c(F)c3)ccc1C)=C2O [V.4-b, (5s,8s)-3-(4′-Chloro-3′-fluoro-4-methylbiphenyl-3-yl)-4-hydroxy-8-(methoxymethyl)-1-azaspiro[4.5]dec-3-en-2-one] | 3640 nM | 43 nM | 30 nM | 35 nM | 20 nM | – | – | – | –
COC[C@]1(OC)CC[C@@]2(CC1)NC(=O)C(c1cc(-c3ccc(Cl)c(F)c3)ccc1C)=C2O [Example 1-4, (5r,8r)-3-(4′-Chloro-3′-fluoro-4-methylbiphenyl-3-yl)-4-hydroxy-8-methoxy-8-(methoxymethyl)-1-azaspiro[4.5]dec-3-en-2-one] | 2850 nM | 333 nM | 120 nM | 96 nM | 48 nM | – | – | – | –
CO[C@]1(C(F)(F)F)CC[C@]2(CC1)NC(=O)C(c1cc(-c3ccc(Cl)c(F)c3)ccc1C)=C2O [Example 1-2, (5r,8r)-3-(4′-Chloro-3′-fluoro-4-methylbiphenyl-3-yl)-4-hydroxy-8-methoxy-8-(trifluoromethyl)-1-azaspiro[4.5]dec-3-en-2-one] | 1790 nM | 104 nM | 22 nM | 14 nM | < 14 nM | – | – | – | –
